From ChEMBL document CHEMBL1201862, “PubChem BioAssay data set” (2004) come the findings set out here.

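The compound was tested at five concentrations on cells cultured in 96-well plates, with a 48-hour exposure period. GI50 marks 50% less growth.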 Calls of active or inactive are those of the source. Rule as the data show it: active = GI50 up to about 1.1 µM and inactive = higher.

Some test systems named below: 786-0; A498; BT-549; CAKI-1; EKVX; HCT-116; HT-29; IGROV-1; MCF7; MOLT-4; NCI-H226; NCI-H23; NCI-H522; OVCAR-4; OVCAR-8; RPMI-8226; SK-MEL-28; SNB-75; TK-10; U-251.
Experiment in all cases: inhibition of tumour cell growth, NCI panel, 48 h

As for `COc1ccc(NC2Oc3cc4c(cc3C(c3cc(OC)c(OC)c(OC)c3)C2C)OCO4)cc1` (stereo not given), the GI50 in the assay on 786-0 was 0.544 µM (active); with A498, 0.316 µM (active); in the assay with BT-549, 1.04 µM (active); with CAKI-1, 0.51 µM (active); in the assay with EKVX it was 3.56 µM (inactive); with HCT-116, 0.364 µM (active). In addition, the GI50 with HT-29 was 0.365 µM (active); with IGROV-1, 0.771 µM (active); in the assay on MCF7, 0.394 µM (active); in the assay with MOLT-4 it was 0.422 µM (active); in the assay on NCI-H226 it was 0.552 µM (active); in the assay with NCI-H23, 0.847 µM (active). The GI50 with NCI-H522 is 0.311 µM (active); in the assay on OVCAR-4 it was 0.566 µM (active); in the assay on OVCAR-8, 0.655 µM (active); in the assay with RPMI-8226, 0.525 µM (active); in the assay with SK-MEL-28, 1.32 µM (inactive); in the assay with SNB-75, 0.301 µM (active). Further, the GI50 in the assay on TK-10 was 5.33 µM (inactive); in the assay with U-251, 0.379 µM (active).

For the compound `CC(NC(=O)/C(=C/c1ccccc1O)NC(=O)c1ccccc1)C(=O)O` (stereo not given), the GI50 in the assay with 786-0 is 24.9 µM (inactive); with A498, > 100 µM (inactive); with BT-549, 18.9 µM (inactive); in the assay with CAKI-1, 19 µM (inactive); with EKVX, 18.8 µM (inactive); in the assay on HCT-116 it was 33.2 µM (inactive). The GI50 was 73.5 µM (inactive) in the assay with HT-29; 17.9 µM (inactive) in the assay with IGROV-1; 5.85 µM (inactive) in the assay with MCF7; > 100 µM (inactive) in the assay with MOLT-4; 14 µM (inactive) in the assay with NCI-H226; > 100 µM (inactive) in the assay with NCI-H23. Also, the GI50 was 18.5 µM (inactive) with NCI-H522; 40.4 µM (inactive) in the assay with OVCAR-4; 15.7 µM (inactive) with OVCAR-8; > 100 µM (inactive) in the assay with RPMI-8226; > 100 µM (inactive) in the assay with SK-MEL-28; 15.4 µM (inactive) in the assay with SNB-75. Moreover, the GI50 in the assay with TK-10 is 44.3 µM (inactive); in the assay with U-251, 50.5 µM (inactive).

With `C[C@@H]1CC[C@@H]2[C@@H](C1)O[C@@H]([C@@H](C)OCc1ccccc1)SC2(C)C`, the GI50 with 786-0 is 19.2 µM (inactive); in the assay with A498, 17.3 µM (inactive); in the assay with BT-549, 22.1 µM (inactive); with CAKI-1 it was 14.9 µM (inactive); in the assay with EKVX it was 31.8 µM (inactive); in the assay on HCT-116 it was 18.3 µM (inactive). Further, the GI50 was 18.8 µM (inactive) with HT-29; 23.1 µM (inactive) in the assay on IGROV-1; 18.7 µM (inactive) in the assay with MCF7; 16.1 µM (inactive) in the assay on MOLT-4; 19.4 µM (inactive) in the assay on NCI-H226; 21.7 µM (inactive) in the assay on NCI-H23. Further, the GI50 with NCI-H522 was 14.8 µM (inactive); with OVCAR-4, 20.1 µM (inactive); in the assay with OVCAR-8 it was 22.4 µM (inactive); with RPMI-8226, 16.5 µM (inactive); in the assay on SK-MEL-28, 24.7 µM (inactive); in the assay with SNB-75 it was 16.2 µM (inactive). Also, the values for the GI50 in the assay on TK-10 and with U-251 were 21.7 µM (inactive) and 17.5 µM (inactive), respectively.

On to `NC(=O)NCCSC1CCCCC1O` (stereo not given), for which the GI50 in the assay with 786-0, in the assay with A498, in the assay on BT-549, with CAKI-1, with EKVX and with HCT-116 was > 100 µM (inactive) in each case. The GI50 is > 100 µM (inactive) in the assay on HT-29; > 100 µM (inactive) with IGROV-1; > 100 µM (inactive) in the assay with MCF7; 26.2 µM (inactive) in the assay with MOLT-4; > 100 µM (inactive) in the assay with NCI-H226; > 100 µM (inactive) in the assay on NCI-H23. Moreover, the GI50 with NCI-H522, in the assay with OVCAR-4, with OVCAR-8, in the assay with RPMI-8226, with SK-MEL-28 and in the assay with SNB-75 was > 100 µM (inactive) each time. Also, the GI50 with TK-10 and with U-251 was > 100 µM (inactive) each time.

As for `Cn1c(-c2cccs2)cc(-c2cccs2)c1-c1cccs1`, the GI50 with 786-0 is > 100 µM (inactive); with A498, > 100 µM (inactive); in the assay on BT-549, > 100 µM (inactive); in the assay on CAKI-1, > 100 µM (inactive); with EKVX, 39.2 µM (inactive); in the assay with HCT-116 it was 34.6 µM (inactive). In addition, the GI50 is > 100 µM (inactive) in the assay on HT-29; 51.8 µM (inactive) in the assay with IGROV-1; 2.82 µM (inactive) in the assay with MCF7; 38.5 µM (inactive) in the assay on MOLT-4; > 100 µM (inactive) with NCI-H226; 13.6 µM (inactive) in the assay on NCI-H23. Also, the GI50 is 21.3 µM (inactive) in the assay with NCI-H522; 39.1 µM (inactive) in the assay on OVCAR-4; > 100 µM (inactive) in the assay on OVCAR-8; 20.4 µM (inactive) in the assay on RPMI-8226; > 100 µM (inactive) in the assay with SK-MEL-28; 53.3 µM (inactive) in the assay with SNB-75. Besides, the GI50 in the assay on TK-10 is > 100 µM (inactive); with U-251, > 79.3 µM (inactive).

For `O=c1onc2c3ccccc3ncn12`, the GI50 in the assay on 786-0, in the assay on A498, in the assay on BT-549, with CAKI-1, in the assay on EKVX and with HCT-116 was > 100 µM (inactive) throughout. In addition, the GI50 with HT-29, in the assay with IGROV-1, in the assay with MCF7, in the assay on MOLT-4, with NCI-H226 and in the assay on NCI-H23 was > 100 µM (inactive) throughout. The GI50 in the assay with NCI-H522, in the assay with OVCAR-4, with OVCAR-8, in the assay on RPMI-8226, with SK-MEL-28 and in the assay on SNB-75 was > 100 µM (inactive) each time. Further, the GI50 in the assay with TK-10 and in the assay with U-251 was > 100 µM (inactive) in each case.

Consider `COC(=O)[C@@H]1Cc2cc(O)c(O)cc2C2(CCN(C)CC2)O1`, for which the GI50 in the assay with 786-0, in the assay on A498, with BT-549, with CAKI-1, in the assay on EKVX and in the assay on HCT-116 was > 10 µM (inactive) each time. Moreover, the GI50 with HT-29, in the assay on IGROV-1, in the assay on MCF7, in the assay with MOLT-4, with NCI-H226 and in the assay with NCI-H23 was > 10 µM (inactive) throughout. For the same compound, the GI50 in the assay with NCI-H522, with OVCAR-4, in the assay on OVCAR-8, in the assay with RPMI-8226, in the assay on SK-MEL-28 and in the assay on SNB-75 was > 10 µM (inactive) in each case. Also, the GI50 in the assay on TK-10 and in the assay on U-251 was > 10 µM (inactive) throughout.

Consider `CCOc1cccc(/C=N\c2ccccc2SSc2ccccc2/N=C\c2cccc(OCC)c2O)c1O`, for which the GI50 with 786-0 was 7.6 µM (inactive); with A498, 24.2 µM (inactive); in the assay on BT-549, 1.58 µM (inactive); with CAKI-1, 9.95 µM (inactive); in the assay with EKVX it was 3.86 µM (inactive); in the assay on HCT-116, 1.73 µM (inactive). Besides, the GI50 with HT-29 is 14.6 µM (inactive); in the assay on IGROV-1, 2.92 µM (inactive); in the assay on MCF7, 0.326 µM (active); in the assay with MOLT-4, 3.38 µM (inactive); with NCI-H226 it was 6.41 µM (inactive); with NCI-H23 it was 5.08 µM (inactive). In addition, the GI50 was 2.95 µM (inactive) with NCI-H522; 4 µM (inactive) in the assay with OVCAR-4; 2.52 µM (inactive) in the assay with OVCAR-8; 3.73 µM (inactive) with RPMI-8226; 12.4 µM (inactive) in the assay on SK-MEL-28; 19.7 µM (inactive) in the assay with SNB-75. Also, the GI50 in the assay with TK-10 is 29 µM (inactive); in the assay with U-251 it was 3.64 µM (inactive).

With `Cc1c(Cl)ccc2c1NC(=O)C2(O)CC(=O)c1ccc(Cl)cc1Cl` (stereo not given), the GI50 in the assay with 786-0 is 27.2 µM (inactive); in the assay with A498 it was 16.2 µM (inactive); with BT-549, > 50 µM (inactive); in the assay with CAKI-1, > 28.7 µM (inactive); in the assay on EKVX, > 46.5 µM (inactive); in the assay with HCT-116, > 50 µM (inactive). The GI50 in the assay on HT-29 was > 50 µM (inactive); in the assay with IGROV-1 it was > 50 µM (inactive); in the assay with MCF7, > 50 µM (inactive); in the assay with MOLT-4, 22.5 µM (inactive); in the assay on NCI-H226, > 29.4 µM (inactive); in the assay on NCI-H23, > 47.1 µM (inactive). Further, the GI50 in the assay with NCI-H522 was > 50 µM (inactive); with OVCAR-4, > 50 µM (inactive); in the assay with OVCAR-8, > 50 µM (inactive); in the assay with RPMI-8226 it was > 41 µM (inactive); in the assay with SK-MEL-28, > 50 µM (inactive); in the assay with SNB-75, 12.8 µM (inactive). The GI50 was 30.5 µM (inactive) in the assay on TK-10 and 22.6 µM (inactive) in the assay on U-251.

Consider `Nc1nc(-c2ccccc2/N=N/N2CCCC2)nc2ccccc12`, for which the GI50 with 786-0 is 2.38 µM (inactive); in the assay on A498, 7.76 µM (inactive); with BT-549, 11.8 µM (inactive); with CAKI-1 it was 4.14 µM (inactive); in the assay with EKVX, 10.8 µM (inactive); in the assay on HCT-116, 1.02 µM (active). Further, the GI50 is 2.38 µM (inactive) with HT-29; 2.91 µM (inactive) with IGROV-1; 3.48 µM (inactive) in the assay on MCF7; 1.16 µM (inactive) in the assay with MOLT-4; 2.22 µM (inactive) in the assay with NCI-H226; 2.2 µM (inactive) with NCI-H23. Also, the GI50 in the assay with NCI-H522 is 4.28 µM (inactive); with OVCAR-4, 5.96 µM (inactive); with OVCAR-8 it was 1.45 µM (inactive); in the assay with RPMI-8226, 2 µM (inactive); in the assay on SK-MEL-28 it was 12.2 µM (inactive); in the assay with SNB-75, 11.5 µM (inactive). Besides, the GI50 is 3.63 µM (inactive) with TK-10 and 2.67 µM (inactive) in the assay with U-251.
